From patent publication US20170049100A1 (priority 2014, published 2017)
Converted amounts (≈) assume the structure as drawn. Read-outs that look alike come from different tables or passages of the source.

How the values were obtained:
[1] = test system: Phytophthora infestans; test: microbe, parasite or virus in culture; type: cell-based; details: for EC50: Phytophthora infestans, 120 h
[2] = cited from earlier work
[3] = test system: Phytophthora infestans; type: in vivo; details: preventive; 3 and 6 I/ha; after incubating for 5 days
[4] = test system: Phytophthora infestans; type: in vivo; details: applied at the same time as Phytophthora infestans; 5 or 7 days; 0.5-1-3-6 L/ha

Row | SMILES | Effectiveness of octanol (% of control) ([1]; 0.000512 μg octanol/mL) | Effectiveness of octanol (% of control) ([1]; 0.00256 μg octanol/mL) | Effectiveness of octanol (% of control) ([1]; 0.0128 μg octanol/mL) | Effectiveness of octanol (% of control) ([1]; 0.064 μg octanol/mL) | Effectiveness of octanol (% of control) ([1]; 0.32 μg octanol/mL) | Effectiveness of octanol (% of control) ([1]; 1.6 μg octanol/mL) | Effectiveness of octanol (% of control) ([1]; 8 μg octanol/mL) | EC50 [1] [ng/mL] | biodegradable ([2]; in 30 days) | intensity of the infection of the potato leaves caused by Phytophthora infestans [3] | development of the pathogen on the surface of potato leaves [4] | Effectiveness of 2-ethyl-hexanol (% of control) ([1]; 0.000512 μg 2-ethyl-hexanol/mL) | Effectiveness of 2-ethyl-hexanol (% of control) ([1]; 0.00256 μg 2-ethyl-hexanol/mL) | Effectiveness of 2-ethyl-hexanol (% of control) ([1]; 0.0128 μg 2-ethyl-hexanol/mL) | Effectiveness of 2-ethyl-hexanol (% of control) ([1]; 0.064 μg 2-ethyl-hexanol/mL) | Effectiveness of 2-ethyl-hexanol (% of control) ([1]; 0.32 μg 2-ethyl-hexanol/mL) | Effectiveness of 2-ethyl-hexanol (% of control) ([1]; 1.6 μg 2-ethyl-hexanol/mL) | Effectiveness of 2-ethyl-hexanol (% of control) ([1]; 8 μg 2-ethyl-hexanol/mL) | biodegradable ([2]; in 5 days) [%]
1 | CCCCCCCCO [octanol, octan-1-ol] | 23.6 % of control | 49.4 % of control | 72.2 % of control | 84.8 % of control | 92.5 % of control | 93.3 % of control | 94.0 % of control | 2.7 (≈ 0.0207 µM) | more than 70% | greatly reduces | completely inhibits |  |  |  |  |  |  |  | 
2 | CCCCC(CC)CO (centres unmarked) [2-ethyl-hexanol] |  |  |  |  |  |  |  | 6.8 (≈ 0.0522 µM) |  |  |  | 16.1 % of control | 42.3 % of control | 60.1 % of control | 71.7 % of control | 79.8 % of control | 82.2 % of control | 84.6 % of control | 100
